From ChEMBL document CHEMBL1201862, “PubChem BioAssay data set” (2004) come the findings set out here.

The target in experiment [1] is T1, Sentrin-specific protease 8 (Homo sapiens, UniProt Q96LD8).
T1 sequence (Q96LD8 whole entry): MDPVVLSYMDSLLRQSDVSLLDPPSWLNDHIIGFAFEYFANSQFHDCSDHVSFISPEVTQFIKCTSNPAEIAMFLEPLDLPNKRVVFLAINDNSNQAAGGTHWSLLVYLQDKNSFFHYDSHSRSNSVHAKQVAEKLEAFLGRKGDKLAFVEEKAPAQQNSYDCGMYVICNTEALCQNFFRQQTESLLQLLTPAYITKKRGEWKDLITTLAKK
As to the kind of experiment: inhibition of sentrin protease 8 – biochemical, luminescence, set 2, SAR follow-up (AID 588601). Type of experiment: functional.

For experiment [2], the target named is T2, Sentrin-specific protease 7 (Homo sapiens, UniProt Q9BQF6).
T2 sequence (Q9BQF6 whole entry): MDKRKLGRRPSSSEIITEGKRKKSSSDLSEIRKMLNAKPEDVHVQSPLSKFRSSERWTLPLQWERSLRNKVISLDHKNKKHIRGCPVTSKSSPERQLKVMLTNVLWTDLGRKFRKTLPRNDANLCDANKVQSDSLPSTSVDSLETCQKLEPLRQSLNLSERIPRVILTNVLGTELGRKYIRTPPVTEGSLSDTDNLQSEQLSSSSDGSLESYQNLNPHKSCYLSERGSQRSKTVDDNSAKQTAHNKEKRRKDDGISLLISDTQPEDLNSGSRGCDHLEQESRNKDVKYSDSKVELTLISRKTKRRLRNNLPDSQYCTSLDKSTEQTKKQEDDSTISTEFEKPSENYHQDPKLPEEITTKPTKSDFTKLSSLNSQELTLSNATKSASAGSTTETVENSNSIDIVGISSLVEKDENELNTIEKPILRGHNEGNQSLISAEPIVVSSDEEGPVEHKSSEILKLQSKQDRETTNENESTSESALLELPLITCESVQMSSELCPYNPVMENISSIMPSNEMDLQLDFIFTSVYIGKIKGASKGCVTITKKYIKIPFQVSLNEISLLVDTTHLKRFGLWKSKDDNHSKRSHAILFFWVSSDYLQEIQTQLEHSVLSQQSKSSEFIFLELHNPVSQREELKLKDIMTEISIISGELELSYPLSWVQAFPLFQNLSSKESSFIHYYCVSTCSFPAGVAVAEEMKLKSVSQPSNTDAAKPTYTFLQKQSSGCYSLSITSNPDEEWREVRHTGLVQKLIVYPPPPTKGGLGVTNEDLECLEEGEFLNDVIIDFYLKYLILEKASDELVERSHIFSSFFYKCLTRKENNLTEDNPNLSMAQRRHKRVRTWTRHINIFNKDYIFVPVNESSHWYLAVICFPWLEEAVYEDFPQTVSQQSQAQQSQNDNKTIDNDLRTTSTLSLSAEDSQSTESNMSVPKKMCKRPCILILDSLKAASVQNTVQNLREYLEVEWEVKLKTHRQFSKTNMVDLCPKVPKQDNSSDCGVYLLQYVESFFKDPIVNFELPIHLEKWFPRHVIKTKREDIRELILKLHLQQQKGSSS
The experiment in a line: inhibition of human SENP7 cleavage activity – biochemical, luminescence, set 2, SAR follow-up (AID 588600). In kind it is functional.

Experiment [3] concerns the target T3, Sentrin-specific protease 6 (Homo sapiens, UniProt Q9GZR1).
T3 sequence (Q9GZR1 whole entry): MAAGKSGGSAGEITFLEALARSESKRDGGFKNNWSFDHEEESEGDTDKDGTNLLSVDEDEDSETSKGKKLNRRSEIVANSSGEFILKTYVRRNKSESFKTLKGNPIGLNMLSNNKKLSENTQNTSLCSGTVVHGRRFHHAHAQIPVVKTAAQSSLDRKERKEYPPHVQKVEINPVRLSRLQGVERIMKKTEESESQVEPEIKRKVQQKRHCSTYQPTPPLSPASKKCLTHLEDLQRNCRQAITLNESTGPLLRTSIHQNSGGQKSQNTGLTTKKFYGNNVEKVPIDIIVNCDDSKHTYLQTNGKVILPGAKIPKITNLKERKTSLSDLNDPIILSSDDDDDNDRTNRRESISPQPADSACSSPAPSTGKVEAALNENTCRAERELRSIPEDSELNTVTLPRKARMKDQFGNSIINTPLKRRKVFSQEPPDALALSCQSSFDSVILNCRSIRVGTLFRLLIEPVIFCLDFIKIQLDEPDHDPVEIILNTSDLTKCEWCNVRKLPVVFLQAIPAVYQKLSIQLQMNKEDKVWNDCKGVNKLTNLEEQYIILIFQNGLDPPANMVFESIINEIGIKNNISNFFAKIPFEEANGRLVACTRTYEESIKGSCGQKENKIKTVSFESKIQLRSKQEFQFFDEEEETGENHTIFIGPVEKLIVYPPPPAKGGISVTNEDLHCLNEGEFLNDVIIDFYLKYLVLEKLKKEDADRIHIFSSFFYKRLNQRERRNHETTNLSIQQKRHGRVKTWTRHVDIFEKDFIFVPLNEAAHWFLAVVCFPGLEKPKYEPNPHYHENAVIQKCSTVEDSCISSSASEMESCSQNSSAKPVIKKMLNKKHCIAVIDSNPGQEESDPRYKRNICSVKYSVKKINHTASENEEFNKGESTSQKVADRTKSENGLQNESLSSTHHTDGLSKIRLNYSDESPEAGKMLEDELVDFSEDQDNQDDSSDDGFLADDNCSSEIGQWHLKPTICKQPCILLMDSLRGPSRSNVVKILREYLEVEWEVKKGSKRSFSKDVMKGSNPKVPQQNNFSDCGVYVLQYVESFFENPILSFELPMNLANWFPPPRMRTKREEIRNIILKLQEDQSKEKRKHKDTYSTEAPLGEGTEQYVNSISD
As to the kind of experiment: inhibition of human SENP6 catalytic domain – biochemical, luminescence, set 2, SAR follow-up (AID 588598). Type of experiment: functional.

The next experiment addresses T4, Caspase-3 (Homo sapiens, UniProt P42574).
T4 sequence (P42574 whole entry): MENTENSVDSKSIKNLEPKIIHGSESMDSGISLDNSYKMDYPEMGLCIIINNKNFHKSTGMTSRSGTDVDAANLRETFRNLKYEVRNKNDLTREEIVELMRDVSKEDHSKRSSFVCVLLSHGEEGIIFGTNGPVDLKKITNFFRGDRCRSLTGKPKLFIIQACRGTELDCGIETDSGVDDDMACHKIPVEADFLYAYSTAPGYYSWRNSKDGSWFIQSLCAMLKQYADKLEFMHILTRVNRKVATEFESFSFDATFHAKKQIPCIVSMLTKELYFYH
As to the kind of experiment: inhibition of recombinant caspase-3 activity – biochemical, luminescence, set 2, selectivity assay for SENP protease inhibitor project, SAR follow-up (AID 588599). In kind it is functional.

Another experiment deals with Phospholipase D1 (Homo sapiens, UniProt Q13393). The experiment in a line: cellular phospholipase D1 inhibition IC50 – cell-based, dose response (AID 602151).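 Note: cellular PLD1 assay in Calu-1 cells stimulated with PMA.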 In kind it is functional.
Chain of Phospholipase D1 (Q13393 whole entry): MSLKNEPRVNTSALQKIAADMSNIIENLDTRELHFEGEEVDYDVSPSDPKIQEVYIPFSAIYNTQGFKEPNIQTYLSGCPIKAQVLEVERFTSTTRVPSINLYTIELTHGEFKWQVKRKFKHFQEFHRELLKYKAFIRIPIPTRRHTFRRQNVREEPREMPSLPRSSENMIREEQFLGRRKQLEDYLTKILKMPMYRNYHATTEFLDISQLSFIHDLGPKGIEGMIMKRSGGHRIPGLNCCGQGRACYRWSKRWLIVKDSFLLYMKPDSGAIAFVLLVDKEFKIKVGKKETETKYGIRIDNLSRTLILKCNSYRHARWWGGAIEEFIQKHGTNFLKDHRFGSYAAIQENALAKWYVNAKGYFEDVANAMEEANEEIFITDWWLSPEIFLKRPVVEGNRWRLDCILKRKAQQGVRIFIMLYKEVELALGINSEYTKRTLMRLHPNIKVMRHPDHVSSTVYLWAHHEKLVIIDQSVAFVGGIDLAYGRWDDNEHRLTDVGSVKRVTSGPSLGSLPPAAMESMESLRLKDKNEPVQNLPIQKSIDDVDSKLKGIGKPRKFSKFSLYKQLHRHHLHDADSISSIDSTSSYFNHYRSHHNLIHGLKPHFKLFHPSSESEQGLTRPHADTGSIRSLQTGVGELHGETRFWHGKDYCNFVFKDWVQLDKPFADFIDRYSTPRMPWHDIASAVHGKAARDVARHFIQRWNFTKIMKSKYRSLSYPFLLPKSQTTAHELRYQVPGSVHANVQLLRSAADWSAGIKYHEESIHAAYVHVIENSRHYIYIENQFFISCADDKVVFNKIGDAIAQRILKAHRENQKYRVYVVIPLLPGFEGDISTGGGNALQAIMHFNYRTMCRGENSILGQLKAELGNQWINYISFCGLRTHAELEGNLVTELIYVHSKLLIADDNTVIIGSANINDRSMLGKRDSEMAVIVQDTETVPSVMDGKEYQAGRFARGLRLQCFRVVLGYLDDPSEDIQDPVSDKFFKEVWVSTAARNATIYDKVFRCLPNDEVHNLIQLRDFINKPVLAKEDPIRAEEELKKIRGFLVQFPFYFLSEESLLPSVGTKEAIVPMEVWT
For the next experiment, the target named is Phospholipase D2 (Homo sapiens, UniProt O14939). The experiment in a line: cellular phospholipase D2 inhibition IC50 – cell-based, dose response (AID 602147).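 Note: cellular assay in HEK293 cells overexpressing GFP-tagged PLD2.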 Type of experiment: functional.
Chain of Phospholipase D2 (O14939 whole entry): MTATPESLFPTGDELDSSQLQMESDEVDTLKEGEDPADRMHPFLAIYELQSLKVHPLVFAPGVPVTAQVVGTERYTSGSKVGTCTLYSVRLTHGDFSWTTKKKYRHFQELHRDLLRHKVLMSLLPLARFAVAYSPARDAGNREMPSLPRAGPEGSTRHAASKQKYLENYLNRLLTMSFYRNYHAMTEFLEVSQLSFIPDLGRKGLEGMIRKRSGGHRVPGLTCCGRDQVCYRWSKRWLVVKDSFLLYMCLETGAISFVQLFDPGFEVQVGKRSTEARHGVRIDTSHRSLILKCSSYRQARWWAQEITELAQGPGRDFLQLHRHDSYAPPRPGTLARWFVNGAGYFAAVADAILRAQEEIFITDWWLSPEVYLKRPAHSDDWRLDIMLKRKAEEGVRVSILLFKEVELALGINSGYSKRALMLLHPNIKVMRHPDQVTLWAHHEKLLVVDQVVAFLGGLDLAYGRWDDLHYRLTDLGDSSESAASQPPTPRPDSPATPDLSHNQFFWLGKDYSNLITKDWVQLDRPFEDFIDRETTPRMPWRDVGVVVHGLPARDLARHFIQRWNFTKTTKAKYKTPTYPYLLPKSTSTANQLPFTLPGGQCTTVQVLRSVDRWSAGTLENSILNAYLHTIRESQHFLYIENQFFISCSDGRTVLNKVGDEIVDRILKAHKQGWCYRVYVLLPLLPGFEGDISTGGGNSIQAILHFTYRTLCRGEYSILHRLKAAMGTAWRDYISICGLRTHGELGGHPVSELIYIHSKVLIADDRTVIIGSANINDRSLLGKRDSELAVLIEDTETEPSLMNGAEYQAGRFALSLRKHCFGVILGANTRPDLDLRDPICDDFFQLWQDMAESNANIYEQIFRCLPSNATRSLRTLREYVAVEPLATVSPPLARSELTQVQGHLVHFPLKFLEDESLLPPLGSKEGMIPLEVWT
Experiment [4] in a line: decrease of insulin promoter-GFP reporter – imaging, high-content screening, mouse beta cells (AID 1628). Type of experiment: functional. As to conditions: MIN6.
For experiment [5], the target named is ATP-dependent molecular chaperone HSP82 (Candida albicans (strain WO-1) (Yeast), UniProt C4YTQ8). The experiment in a line: steroid-induced GRE reporter decrease in yeast – S. cerevisiae, luminescence, Hsp90 inhibitor project, dose response (AID 2400).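 Note: beta-galactosidase luminescence from glucocorticoid response element reporter as proxy for Hsp90 function; inhibitor potency where signal loss means Hsp90 inhibition.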 Type of experiment: functional, cell-based.
Chain of ATP-dependent molecular chaperone HSP82 (C4YTQ8 whole entry): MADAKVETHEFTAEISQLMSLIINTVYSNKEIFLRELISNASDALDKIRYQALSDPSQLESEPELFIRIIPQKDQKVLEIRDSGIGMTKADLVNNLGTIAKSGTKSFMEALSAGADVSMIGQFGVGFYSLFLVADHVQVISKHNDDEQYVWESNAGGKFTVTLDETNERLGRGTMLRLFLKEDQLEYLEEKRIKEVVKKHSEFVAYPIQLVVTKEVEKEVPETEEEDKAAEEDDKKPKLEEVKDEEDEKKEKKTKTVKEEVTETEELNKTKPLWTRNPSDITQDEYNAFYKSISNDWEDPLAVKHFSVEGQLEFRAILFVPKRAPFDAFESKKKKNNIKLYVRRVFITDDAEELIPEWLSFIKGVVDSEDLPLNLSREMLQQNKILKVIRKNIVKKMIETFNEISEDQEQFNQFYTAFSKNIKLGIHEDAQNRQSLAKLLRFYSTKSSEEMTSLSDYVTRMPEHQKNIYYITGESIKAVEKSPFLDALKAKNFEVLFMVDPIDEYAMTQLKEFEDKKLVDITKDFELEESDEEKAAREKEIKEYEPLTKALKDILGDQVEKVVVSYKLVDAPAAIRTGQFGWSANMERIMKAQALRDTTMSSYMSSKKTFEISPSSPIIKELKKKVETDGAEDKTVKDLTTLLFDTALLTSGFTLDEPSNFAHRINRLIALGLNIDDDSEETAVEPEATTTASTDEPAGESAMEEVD
In experiment [6] the target is Serine/threonine-protein phosphatase (Candida dubliniensis (strain CD36 / CBS 7987 / NCPF 3949 / NRRLY-17841) (Yeast), UniProt B9W6M3). The experiment in a line: blockers of CaCl2-induced CDRE-lacZ signaling – S. cerevisiae, luminescence, secondary, dose response (AID 2388).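 Note: yeast reporter cells carrying a calcineurin-responsive lacZ construct stimulated with calcium chloride; luminescent beta-galactosidase reporter signal in whole cells rather than isolated phosphatase activity; potency for inhibition where a drop in reporter signal means calcineurin blockade.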 In kind it is functional, cell-based.
Chain of Serine/threonine-protein phosphatase (B9W6M3 whole entry): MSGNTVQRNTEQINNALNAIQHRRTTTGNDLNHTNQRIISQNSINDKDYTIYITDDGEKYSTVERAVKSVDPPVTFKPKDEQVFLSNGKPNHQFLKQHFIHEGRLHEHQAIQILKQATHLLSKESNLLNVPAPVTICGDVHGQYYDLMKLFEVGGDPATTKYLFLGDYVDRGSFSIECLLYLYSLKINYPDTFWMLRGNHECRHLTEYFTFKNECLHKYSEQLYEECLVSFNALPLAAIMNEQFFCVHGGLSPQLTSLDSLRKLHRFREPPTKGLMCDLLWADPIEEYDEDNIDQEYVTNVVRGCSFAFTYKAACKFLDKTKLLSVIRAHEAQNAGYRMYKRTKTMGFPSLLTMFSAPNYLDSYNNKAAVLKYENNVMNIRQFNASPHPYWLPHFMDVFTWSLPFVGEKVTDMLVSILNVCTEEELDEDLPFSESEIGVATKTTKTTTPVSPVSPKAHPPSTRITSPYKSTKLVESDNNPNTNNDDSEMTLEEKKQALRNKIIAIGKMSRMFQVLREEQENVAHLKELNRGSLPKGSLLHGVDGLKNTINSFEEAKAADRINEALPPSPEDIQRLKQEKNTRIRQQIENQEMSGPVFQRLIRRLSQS
The nature of experiment [7]: NIH-3T3 fibroblast cytotoxicity, dose response, cytotoxicity control, cell-based, fluorescence, Alamar Blue, secondary assay (AID 2327).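 Note: NIH-3T3 mouse fibroblasts cultured with fluconazole at 8 µg/mL.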 Type of experiment: functional.
The nature of experiment [8]: reduction of Shn3 3'UTR-driven luciferase in osteoblasts – cell-based, Clone20 osteoblasts, firefly luciferase, cherry-picked, dose response (AID 624132).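 Note: firefly luciferase luminescence from reporter carrying the Shn3 3'UTR in osteoblasts.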 In kind it is functional.
Experiment [9] addresses T5, Ubiquitin-conjugating enzyme E2 N (Homo sapiens, UniProt P61088).
T5 sequence (P61088 whole entry): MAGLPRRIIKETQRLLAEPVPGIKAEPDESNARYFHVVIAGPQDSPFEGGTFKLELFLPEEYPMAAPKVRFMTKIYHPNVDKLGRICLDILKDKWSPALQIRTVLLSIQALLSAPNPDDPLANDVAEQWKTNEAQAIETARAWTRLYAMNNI
Type of experiment: functional.

The nature of experiment [10]: MIN6 cell viability loss – mouse insulinoma, cytotoxicity control, dose response (AID 2122).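 Note: confirmatory high-throughput counterscreen run to flag cytotoxic compounds.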 In kind it is functional.
Experiment [11] is described as follows: loss of viability in HepG2 cells – cell-based, CellTiter-Glo, cherry-picked, cytotoxicity control for Shn3 inhibitor project, dose response (AID 624134). Type of experiment: functional.
In experiment [12] the target is G-protein coupled receptor 55 (Homo sapiens, UniProt Q9Y2T6). The experiment in a line: inhibition of LPI-stimulated GPR55 beta-arrestin translocation – imaging, U2OS, beta-arrestin-GFP, LPI agonist, primary screen (AID 2013).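 Note: antagonist potency measured as reduced agonist-driven arrestin aggregation.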 Type of experiment: functional.
Chain of G-protein coupled receptor 55 (Q9Y2T6 whole entry): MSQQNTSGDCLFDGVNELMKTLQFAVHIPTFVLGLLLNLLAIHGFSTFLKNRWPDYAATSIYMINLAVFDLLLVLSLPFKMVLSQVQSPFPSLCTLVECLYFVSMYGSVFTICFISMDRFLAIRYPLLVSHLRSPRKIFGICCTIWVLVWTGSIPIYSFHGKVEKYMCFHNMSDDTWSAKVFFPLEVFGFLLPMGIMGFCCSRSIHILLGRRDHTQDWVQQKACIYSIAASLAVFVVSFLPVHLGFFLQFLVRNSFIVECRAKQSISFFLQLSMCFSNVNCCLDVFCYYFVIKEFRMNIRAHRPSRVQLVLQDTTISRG
A short description of experiment [13]: non-specific 3'UTR reporter inhibition in Clone20-Shn3RL – cell-based, Renilla luciferase, cherry-picked, counter-screen for Shn3 inhibitor project, dose response (AID 624133). In kind it is functional. (Counterscreens check selectivity or assay interference.)
Experiment [14] is described as follows: fluconazole-exposed Candida albicans growth modulators – fluorescence, retest, confirmation (AID 2467). In kind it is functional, cell-based.

The source made the active and inactive calls. Some results are limits rather than exact numbers.

Take `Cc1ccccc1-c1noc(/C(C#N)=C\c2ccccc2F)n1`: the IC50 (in [1]; in experiment [2]; in experiment [3]; at Caspase-3) was > 99 µM (inactive) each time.

Consider `O=C(NCCN1CCC2(CC1)CCN(c1ccccc1)C2=O)c1cnc2ccccc2c1`, for which the IC50 on Phospholipase D1 is 20 µM (inactive); at Phospholipase D2, 20 µM (active).

As for `Cc1cc(Nc2ccccc2)nc(NCc2ccccc2)n1`, the IC50 was 0.927 µM (active) in [4], > 20 µM (inactive) in experiment [9], 0.571 µM (active) in experiment [10] and 2.05 µM (active) in [12]. Further, the EC50 in experiment [5] is > 150 µM (inactive); in experiment [6], > 180 µM (inactive); in [7], > 150 µM (inactive); in experiment [14], 0.783 µM (active). In addition, the AC50 is 1.04 µM (active) in experiment [8], 20.5 µM (active) in experiment [11] and 2.54 µM (active) in [13].

The term IC50 denotes the concentration that gives 50% inhibition. In general, EC50 refers to the concentration at which the effect is half-maximal. As a reminder, the AC50 is the midpoint of the concentration-response curve, whichever way the signal moves.
